Laboratory results from patent US20110159515A1, “COMPOSITIONS AND METHODS FOR THE RAPID GROWTH AND DETECTION OF MICROORGANISMS” (SOLUS SCIENTIFIC SOLUTIONS LIMITED, priority 2008, published 2011).
Where “and” joins values, the source holds several entries; their conditions need not be identical. Equal entries are not always repeated. Where two headings read alike, the source gives them in different places.

Experiments:
Salmonella = assay: Growth response in tryptic soy broth with additive, A620 turbidity; format: cell-based, Salmonella aberdeen; details: for A620: Salmonella
E. coli = assay: Growth response in tryptic soy broth with additive, A620 turbidity; format: cell-based; details: for A620: E. coli
S. aberdeen = assay: Direct binding Salmonella assay (chemiluminescence immunosorbent); details: detergent level not given
Experimental: After 5 hours of culture, a 2 ml aliquot of the sample was removed and SDS was added to a final concentration of 0.5% (w/v). The sample was heated to 100° C. for 5 minutes and allowed to cool. One hundred microlitres of each test sample was added directly to a well of a solid white 96 well high binding microtitre plate (Greiner Bio One) and incubated at 37° C. for 30 minutes. During incubation, the lipid A portion of the LPS binds to the surface of the plate via non-covalent hydrophobic interactions (FIG. 1a (1), FIG. 1b(1)).
(§1) The final concentration of antibody per well was 50 ng. The plate-bound sample (Salmonella LPS/core oligosaccharide) and antibody were incubated in the coated wells for 30 minutes as 37° C. Following incubation, plates were washed three times in wash buffer and pat dried prior to detection (FIG. 1a(2), FIG. 1b(2)).
(§2) When the anti-Salmonella is directly labelled with acridinium ester, plates were placed into a luminometer. 30 μl of trigger solution A and 60 μl of trigger solution B was added to each well of the microtitre plate to initiate light output from conjugated acridinium ester (FIG. 1a(3)). The luminometer settings were as follows:
(§3) When the anti-Salmonella antibody is not labelled, a second binding member, a goat anti-mouse IgG2b conjugate is used. Post column IgG2b was diluted 1:100 in a diluent comprising 3% (w/v) non-fat milk powder and 0.05% (v/v) Tween 20 and 100 ul of this solution was added to each well of the plate (FIG. 1b(3)). Following incubation at 37° C. for 60 minutes the plate was washed four times in wash buffer, dried and read as above (FIG. 1b(4)).
The wells of an assay plate are coated with standard concentrations of bacteria for 1 hour at 37° C. These standard concentrations are: 10^6, 10^5, 5×10^4, 2.5×10^4, 10^4 and 5×10^3 and blank wells containing 10^6 E. coli. The fractions to be tested are diluted 1:100 in assay buffer and […] is added to each well and incubated at 37° C. for 20 minutes. The wells are then read on the luminometer, as above.

L. innocua = assay: as above; details: 10^6 L. innocua; detergent level not given
Experimental: The sample was heated to 100° C. for 5 minutes and allowed to cool. One hundred microlitres of each test sample was added directly to a well of a solid white 96 well high binding microtitre plate (Greiner Bio One) and incubated at 37° C. for 30 minutes. During incubation, the lipid A portion of the LPS binds to the surface of the plate via non-covalent hydrophobic interactions (FIG. 1a (1), FIG. 1b(1)).
as §1, §2, §3
Monoclonal antibody (1:100 dilution) was incubated with either Salmonella or Listeria to determine optimum incubation times:
Monoclonal antibody (1:200 dilution) was incubated with either Salmonella or Listeria to determine optimum incubation times: […]

[1] = 2 to 16 g/L, tryptic soy broth, 37° C., 18 hours
[2] = 10^1 bacteria (species not given)
[3] = 10^2 bacteria (species not given)
[4] = 10^3 bacteria (species not given)
[5] = 10^4 bacteria (species not given)
[6] = 10^5 bacteria (species not given)
[7] = 10^6 bacteria (species not given)
[8] = 5 mg/litre brilliant green, high absorbance values due to absorbance of Brilliant Green
[9] = 7 mg/litre brilliant green, high absorbance values due to absorbance of Brilliant Green
[10] = 10 mg/litre brilliant green, high absorbance values due to absorbance of Brilliant Green

**Q.** How did the “levels at which growth of Salmonella is inhibited” value (Salmonella) turn out when `O=S(=O)([O-])SSS(=O)(=O)[O-].[Na+].[Na+]` [sodium tetrathionate] was run?
**A.** above 16 g/L

**Q.** And the “effect on growth of Salmonella” value (Salmonella; [1])?
**A.** un-affected or promoted

**Q.** What about the “effect on the growth of Salmonella” value (Salmonella; 8 g/litre) of the same compound?
**A.** clear enhancing effect

**Q.** What about the A620 (Salmonella; 4 g/litre tetrathionate) of the same compound?
**A.** 0.187 and 0.179

**Q.** And the A620 (Salmonella; 8 g/litre tetrathionate)?
**A.** 0.818 and 0.848

**Q.** And the A620 (Salmonella; 12 g/litre tetrathionate)?
**A.** 0.226 and 0.270

**Q.** What about the A620 (Salmonella; 15 g/litre tetrathionate) of the same compound?
**A.** 0.167 and 0.186

**Q.** What about the A620 (Salmonella; 20 g/litre tetrathionate) of the same compound?
**A.** 0.150 and 0.139

**Q.** What about the A620 (Salmonella; 25 g/litre tetrathionate) of the same compound?
**A.** 0.086 and 0.099

**Q.** What about the A620 (Salmonella; 30 g/litre tetrathionate) of the same compound?
**A.** 0.059 and 0.073

**Q.** What about the “levels in a culture media that significantly inhibit the growth of Salmonella spp” value (Salmonella; summary statement) of the same compound?
**A.** above 20 g/L

**Q.** What about the “effect on growth of Staphylococcus” value (Staphylococcus aureus; [1]) of the same compound?
**A.** inhibited

**Q.** And the “effect on growth of Shigella” value (Shigella flexneri; [1])?
**A.** inhibited

**Q.** And the “levels that inhibit the growth of E. coli” value (E. coli)?
**A.** > 4 g/L

**Q.** And the “effect on growth of E. coli” value (E. coli; [1])?
**A.** inhibited

**Q.** And the A620 (E. coli; 4 g/litre tetrathionate)?
**A.** 0.096 and 0.104

**Q.** And the A620 (E. coli; 8 g/litre tetrathionate)?
**A.** 0.078 and 0.073

**Q.** And the A620 (E. coli; 12 g/litre tetrathionate)?
**A.** 0.053 and 0.048

**Q.** And the A620 (E. coli; 15 g/litre tetrathionate)?
**A.** 0.011

**Q.** What about the A620 (E. coli; 20 g/litre tetrathionate) of the same compound?
**A.** 0.015 and 0.018

**Q.** What about the A620 (E. coli; 25 g/litre tetrathionate) of the same compound?
**A.** 0.023 and 0.022

**Q.** And the A620 (E. coli; 30 g/litre tetrathionate)?
**A.** 0.021 and 0.020

**Q.** `CCCCCCCCCCCCCCCC[N+](C)(C)C.[Br-]` [CTAB, cetyltrimethyammonium bromide] was tested. Which “signal, release and detection of core oligosaccharide” value (shortened to “signal, release and detection”) (S. aberdeen; [2]) did it give?
**A.** 8901 relative light units

**Q.** What about the “signal, release and detection” value (S. aberdeen; [3]) of the same compound?
**A.** 9746 relative light units

**Q.** And the “signal, release and detection” value (S. aberdeen; [4])?
**A.** 21541 relative light units

**Q.** What about the “signal, release and detection” value (S. aberdeen; [5]) of the same compound?
**A.** 203215 relative light units

**Q.** And the “signal, release and detection” value (S. aberdeen; [6])?
**A.** 775871 relative light units

**Q.** What about the “signal, release and detection” value (S. aberdeen; [7]) of the same compound?
**A.** 866920 relative light units

**Q.** What about the “signal, release and detection” value (L. innocua) of the same compound?
**A.** 7593 relative light units

**Q.** Which results are given for TRITON X-100?
**A.** signal, release and detection of core oligosaccharide (S. aberdeen; [2]): 9981 relative light units; signal, release and detection of core oligosaccharide (S. aberdeen; [3]): 10494 relative light units; signal, release and detection of core oligosaccharide (S. aberdeen; [4]): 22570 relative light units; signal, release and detection of core oligosaccharide (S. aberdeen; [5]): 203602 relative light units; signal, release and detection of core oligosaccharide (S. aberdeen; [6]): 867745 relative light units; signal, release and detection of core oligosaccharide (S. aberdeen; [7]): 455886 relative light units; signal, release and detection of core oligosaccharide (L. innocua): 7076 relative light units

**Q.** For `CCCCCCCCCCCCCCCC[N+](C)(C)C.[Cl-]` [CTAC, cetyltrimethyammoniumchloride], which “signal, release and detection” value (S. aberdeen; [2]) is on record?
**A.** 10321 relative light units

**Q.** And the “signal, release and detection” value (S. aberdeen; [3])?
**A.** 12485 relative light units

**Q.** What about the “signal, release and detection” value (S. aberdeen; [4]) of the same compound?
**A.** 22758 relative light units

**Q.** And the “signal, release and detection” value (S. aberdeen; [5])?
**A.** 205093 relative light units

**Q.** And the “signal, release and detection” value (S. aberdeen; [6])?
**A.** 792108 relative light units

**Q.** And the “signal, release and detection” value (S. aberdeen; [7])?
**A.** 881712 relative light units

**Q.** What about the “signal, release and detection” value (L. innocua) of the same compound?
**A.** 7892 relative light units

**Q.** Which “levels at which growth of Staphylococcus is limited” value (Staphylococcus aureus) does the source give for `O=C([O-])CC(O)(CC(=O)[O-])C(=O)[O-].[Na+].[Na+].[Na+]` [sodium citrate, tri-sodium citrate] here?
**A.** ≥ 5 g/L

**Q.** And the “growth response of Shigella over those of Staphylococcus and E. coli” value (Shigella flexneri; 15 g/L)?
**A.** significantly increased

**Q.** What about the “effect on growth of Shigella” value (Shigella flexneri; FIG. 6) of the same compound?
**A.** enhanced

**Q.** And the “levels at which growth of E. coli is limited” value (“levels … of E. coli is limited” for short) (E. coli)?
**A.** ≥ 5 g/L

**Q.** For `C[C@H](CCC(=O)[O-])[C@H]1CC[C@H]2[C@@H]3[C@H](O)C[C@@H]4C[C@H](O)CC[C@]4(C)[C@H]3C[C@H](O)[C@]12C.[Na+]` [SODIUM CHOLATE], which “signal, release and detection” value (S. aberdeen; [2]) is on record?
**A.** 8858 relative light units

**Q.** And the “signal, release and detection” value (S. aberdeen; [3])?
**A.** 8921 relative light units

**Q.** What about the “signal, release and detection” value (S. aberdeen; [4]) of the same compound?
**A.** 12088 relative light units

**Q.** What about the “signal, release and detection” value (S. aberdeen; [5]) of the same compound?
**A.** 67710 relative light units

**Q.** And the “signal, release and detection” value (S. aberdeen; [6])?
**A.** 529553 relative light units

**Q.** What about the “signal, release and detection” value (S. aberdeen; [7]) of the same compound?
**A.** 917476 relative light units

**Q.** And the “signal, release and detection” value (L. innocua)?
**A.** 7495 relative light units

**Q.** How did the “levels at which growth of Salmonella is limited” value (Salmonella) turn out when `CCN(CC)c1ccc(C(=C2C=CC(=[N+](CC)CC)C=C2)c2ccccc2)cc1` [brilliant green] was run?
**A.** ≥ 0.3 mg/L

**Q.** What about the “optimum level for growth of Salmonella with inhibition of competing bacteria” value (Salmonella; FIG. 4) of the same compound?
**A.** 0.15 mg/L

**Q.** What about the A620 (Salmonella; 0.15 mg/litre brilliant green) of the same compound?
**A.** 0.255 and 0.229

**Q.** And the A620 (Salmonella; 0.3 mg/litre brilliant green)?
**A.** 0.046 and 0.041

**Q.** And the A620 (Salmonella; 1 mg/litre brilliant green)?
**A.** 0.057 and 0.040

**Q.** What about the A620 (Salmonella; 3 mg/litre brilliant green) of the same compound?
**A.** 0.072 and 0.061

**Q.** What about the A620 (Salmonella; [8]) of the same compound?
**A.** 0.282 and 0.256

**Q.** And the A620 (Salmonella; [9])?
**A.** 0.606 and 0.569

**Q.** What about the A620 (Salmonella; [10]) of the same compound?
**A.** 0.614 and 0.607

**Q.** What about the “levels … of E. coli is limited” value (E. coli) of the same compound?
**A.** ≥ 0.0003 g/L

**Q.** What about the A620 (E. coli; 0.15 mg/litre brilliant green) of the same compound?
**A.** 0.102 and 0.118

**Q.** And the A620 (E. coli; 0.3 mg/litre brilliant green)?
**A.** 0.043 and 0.062

**Q.** And the A620 (E. coli; 1 mg/litre brilliant green)?
**A.** 0.037 and 0.035

**Q.** What about the A620 (E. coli; 3 mg/litre brilliant green) of the same compound?
**A.** 0.041 and 0.034

**Q.** What about the A620 (E. coli; [8]) of the same compound?
**A.** 0.250 and 0.230

**Q.** And the A620 (E. coli; [9])?
**A.** 0.524 and 0.500

**Q.** And the A620 (E. coli; [10])?
**A.** 0.624 and 0.665

**Q.** With ammonium ferric citrate as the compound, how does the “effect on growth of Salmonella” value (Salmonella; levels above 0.25 g/l, FIG. 5) read?
**A.** unaffected

**Q.** What about the “levels at which growth of Staphylococcus is limited” value (Staphylococcus aureus) of the same compound?
**A.** ≥ 0.25 g/L

**Q.** And the “optimum level for growth of Shigella” value (Shigella flexneri; FIG. 5)?
**A.** 0.25 g/L

**Q.** What about the “levels … of E. coli is limited” value (E. coli) of the same compound?
**A.** ≥ 0.25 g/L
